{"source": "patent US20160067241A1", "about": "“COMPOSITIONS AND METHODS TO IMPROVE THE THERAPEUTIC BENEFIT OF SUBOPTIMALLY ADMINISTERED CHEMICAL COMPOUNDS INCLUDING SUBSTITUTED NAPHTHALIMIDES SUCH AS AMONAFIDE FOR THE TREATMENT OF IMMUNOLOGICAL, METABOLIC, INFECTIOUS, AND BENIGN OR NEOPLASTIC HYPERPROLIFERATIVE DISEASE CONDITIONS” (priority 2013, published 2016)", "key": {"[1]": {"tested_on": "RIF-1 murine fibrosarcoma", "assay": "RIF-1 fibrosarcoma tumor growth delay (tumor volume quadrupling time) in mice", "assay_type": "in vivo, Female C3H mice", "settings": "for enhancement of amonafide activity by sensitizing or potentiating agent: agent given with amonafide", "description": "Tables 1 and 2, shown in FIGS. 1 and 2, respectively, show the use of amonafide, alone or in combination with another anti-neoplastic drug, in a tumor model in mice as described below Female C3H mice (Charles River Laboratories, Hollister, Calif.), approximately 3 months old, were used for the study. The average body weight was approximately 25 g. Animals were maintained in isolator cages on a 12-hour light-and-dark cycle. Food and water were available ad libitum. The RIF-1 murine fibrosarcoma cell line was maintained in in vitro culture (Waymouth medium supplemented with 20% fetal bovine serum) at 37° C. in a humidified 5% CO2 incubator. Log-phase RIF-1 cells were trypsinized and harvested from cell culture flasks to yield a concentration of 4×10^6 cells/mL, then injected intradermally in a volume of 50 μL (equivalent to 2×10^5 cells per injection) into both flanks of each mouse. Nine days later, when tumors reached approximately 100 mm^3 in size, the animals were randomized to different treatment groups. The intraperitoneal injection volume was 100 μL. The oral administration volume was 100 μL. For evaluation of tumor growth delay, tumors were measured three times weekly for up to 22 days with Vernier calipers. Tumor volume (cubic millimeters, mm^3) was calculated according to the following formula: V=π/6×D1×D2×D3, where D1, D2, and D3 are perpendicular diameters measured in […]. Tumor volume quadrupling time (TVQT), defined as the time required for a tumor to grow to four times (4×) its initial volume (at the time of treatment), was used as a study endpoint. The TVQT was determined for each treatment group and expressed in days as the mean±standard error (SE). In these tables, “CDDP” is cisplatin, “VBL” is vinblastine, “HHT” is homoharringtonine, “5FU” is 5-fluorouracil, “CPT” is camptothecin, “RA” is rosmarinic acid, and “MGBG” is methylglyoxalbisguanylhydrazone. For solvents and excipients, “Sal” is saline, “NMF” is N-methylformamide, and “PEG400” is polyethylene glycol 400. For routes of administration, “IP” is intraperitoneal, “PO” is oral, “IM” is intramuscular, and “SC” is subcutaneous. In these tables, the use of the “+” symbol means that both drugs were administered at the same time, while the use of the “ ? ” symbol means that the drug to the left of the symbol was administered first, followed by the drug to the right of the symbol; the second drug was administered 30 minutes after the first drug. In the headings for these tables, “Days to 4×” is the number of days it takes the tumors to grow to four times their original size. “T/C” represents the average number of days that it takes the tumors to grow to four times their original size for the specified treatment divided by the number of days that it takes the tumors to grow to four times their original size for the control."}, "N-acetyltransferase NAT2": {"biological_target": "T1, N-acetyltransferase NAT2 (Homo sapiens, UniProt P11245)", "T1 sequence (P11245 1-290)": "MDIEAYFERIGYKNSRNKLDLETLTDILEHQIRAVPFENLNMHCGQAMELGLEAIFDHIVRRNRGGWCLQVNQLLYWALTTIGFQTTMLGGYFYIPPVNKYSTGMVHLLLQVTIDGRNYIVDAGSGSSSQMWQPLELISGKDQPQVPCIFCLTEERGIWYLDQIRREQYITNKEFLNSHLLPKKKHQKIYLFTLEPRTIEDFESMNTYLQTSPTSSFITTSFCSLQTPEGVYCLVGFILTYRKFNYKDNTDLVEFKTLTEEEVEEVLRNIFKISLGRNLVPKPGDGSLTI", "settings": "cited from earlier work"}, "topoisomerase II": {"tested_on": "topoisomerase II", "settings": "Hsiang et al. 1989; cited from earlier work"}, "[2]": {"biological_target": "glycogen synthase kinase-3β (GSK-3β) (Homo sapiens, UniProt P49841)", "sequence (P49841 whole entry, species assumed)": "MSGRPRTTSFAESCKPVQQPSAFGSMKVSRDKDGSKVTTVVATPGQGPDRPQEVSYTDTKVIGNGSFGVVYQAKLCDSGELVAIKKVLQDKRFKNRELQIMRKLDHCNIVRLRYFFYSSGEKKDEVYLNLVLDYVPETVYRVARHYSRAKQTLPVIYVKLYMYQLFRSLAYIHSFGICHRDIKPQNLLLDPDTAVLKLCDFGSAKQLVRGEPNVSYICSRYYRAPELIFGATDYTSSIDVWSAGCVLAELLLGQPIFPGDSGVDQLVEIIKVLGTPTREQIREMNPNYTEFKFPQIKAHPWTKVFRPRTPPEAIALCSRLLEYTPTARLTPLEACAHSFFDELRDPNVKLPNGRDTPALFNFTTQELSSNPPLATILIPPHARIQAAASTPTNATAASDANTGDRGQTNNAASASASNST", "settings": "cited from earlier work"}, "[3]": {"tested_on": "white blood cell count (WBC)", "settings": "patients; cited from earlier work"}}, "data": [{"smiles": "COc1ccc2cc3[n+](cc2c1OC)CCc1cc2c(cc1-3)OCO2", "note": "[berberine]", "values": [{"measurement": "enhancement of amonafide activity by sensitizing or potentiating agent", "setting": "[1]", "value": "enhances amonafide activity"}]}, {"smiles": "CN(C)CCN1C(=O)c2cccc3cc(N)cc(c23)C1=O", "note": "[amonafide, 5-amino-2-[2-(dimethylamino)ethyl]-1H-benzo[de]isoquinoline-1,3(2H)-dione]", "values": [{"measurement": "metabolism by NAT2", "setting": "N-acetyltransferase NAT2", "value": "converted to an active metabolite by way of the N-acetyltransferase NAT2"}, {"measurement": "effect on tumor growth", "setting": "[1]; RIF-1 tumors in C3H mice, alone or in combination with another anti-neoplastic drug", "value": "significant effect on tumor growth"}, {"measurement": "combination effect with another anti-neoplastic drug", "setting": "[1]; amonafide administered together with another anti-neoplastic drug", "value": "evidence of synergism"}, {"measurement": "enhancement of antitumor effects of other drugs (chemosensitizer or chemopotentiator)", "setting": "[1]; amonafide combined with a second drug", "value": "enhanced the antitumor effects of cisplatin, 5-fluorouracil, homoharringtonine, vinblastine, camptothecin, methylglyoxalbisguanylhydrazone, and cytarabine"}, {"measurement": "antiproliferative activity by route", "setting": "[1]; direct systemic (intraperitoneal) administration or oral route", "value": "active antiproliferative agent"}, {"measurement": "activity by schedule", "setting": "[1]; single administration or multiple oral doses", "value": "active after a single administration or given as multiple doses orally"}, {"measurement": "promotion of topoisomerase II-mediated DNA cleavage", "setting": "topoisomerase II", "value": "promote topoisomerase II-mediated DNA cleavage"}]}, {"smiles": "NC(=O)c1cccnc1", "note": "[nicotinamide]", "values": [{"measurement": "enhancement of amonafide activity by sensitizing or potentiating agent", "setting": "[1]", "value": "enhances amonafide activity"}]}, {"smiles": "CN1C(=O)/C(=C2/C(=O)Nc3ccccc32)c2ccccc21", "note": "[Meisoindigo]", "values": [{"measurement": "concentration for inhibition of GSK-3β", "setting": "[2]", "value": "5 to 50", "unit": "nM"}]}, {"smiles": "CC(=O)Nc1cc2c3c(cccc3c1)C(=O)N(CCN(C)C)C2=O", "note": "[acetyl amonafide]", "values": [{"measurement": "impact on white blood cell count", "setting": "[3]", "value": "induce leukocytopenia and, in particular, granulocytopenia"}]}]}
